Test results from patent publication US8394788B2, “Phenylsulfoxyoxazole compound inhibitors of urea transporters” (The Regents of the University of California, priority 2006, dated 2013).

What was measured:
rat UT-A1 = molecular target: T1, rat UT-A1 (Rattus norvegicus, UniProt Q62668); experiment: UT-A1-facilitated urea flux across MDCK-UT-A1 cell layers; type: cell-based; conditions: forskolin 10 μM; phloretin 0.7 mM
T1 sequence (Q62668 1-929): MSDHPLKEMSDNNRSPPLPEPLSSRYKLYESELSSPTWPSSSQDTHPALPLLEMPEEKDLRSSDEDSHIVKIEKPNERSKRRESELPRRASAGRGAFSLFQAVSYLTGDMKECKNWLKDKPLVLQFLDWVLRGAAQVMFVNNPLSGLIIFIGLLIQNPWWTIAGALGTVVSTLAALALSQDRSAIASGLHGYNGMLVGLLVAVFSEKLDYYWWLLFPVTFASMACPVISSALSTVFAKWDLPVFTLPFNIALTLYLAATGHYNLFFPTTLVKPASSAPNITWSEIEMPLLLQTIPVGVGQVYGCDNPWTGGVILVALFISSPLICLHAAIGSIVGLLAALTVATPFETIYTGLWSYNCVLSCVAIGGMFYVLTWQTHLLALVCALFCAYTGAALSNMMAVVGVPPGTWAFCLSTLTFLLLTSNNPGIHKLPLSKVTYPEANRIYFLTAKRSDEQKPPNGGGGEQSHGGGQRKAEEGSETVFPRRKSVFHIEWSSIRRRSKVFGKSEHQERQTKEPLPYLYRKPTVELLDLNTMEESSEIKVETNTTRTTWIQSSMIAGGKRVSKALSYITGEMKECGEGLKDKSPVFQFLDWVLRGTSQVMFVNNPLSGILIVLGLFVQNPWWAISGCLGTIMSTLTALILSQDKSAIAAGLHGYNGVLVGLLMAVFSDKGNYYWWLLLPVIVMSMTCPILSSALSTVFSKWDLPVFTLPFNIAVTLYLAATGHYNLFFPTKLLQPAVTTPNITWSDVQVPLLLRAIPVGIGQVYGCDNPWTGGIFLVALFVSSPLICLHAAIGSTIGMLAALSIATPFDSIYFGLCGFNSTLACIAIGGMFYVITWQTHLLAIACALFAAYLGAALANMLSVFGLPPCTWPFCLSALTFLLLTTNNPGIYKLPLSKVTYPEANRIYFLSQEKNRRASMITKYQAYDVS
Procedure: Concentration-inhibition studies were performed to study the effect of the active mouse UT-B inhibitors on urea transport by UT-A. The amino acid sequences of UT-B and UT-A urea transporter isoforms share significant similarity. The cells used in these studies were MDCK cells that expressed rat UT-A1. MDCK-UT-A1-expressing cells were grown on collagen-coated porous filters until they were electrically tight, at which point 15 mM urea was introduced into buffer bathing the basolateral cell surface. […]
UT-A1-facilitated urea flux in the basolateral-to-apical direction across unstimulated and forskolin-stimulated MDCK-UT-A1 cell layers was measured in response to a 15-mM urea gradient. […] Five μL samples of apical fluid were collected at specified times during incubation at 37° C., and urea concentration was determined using a commercial kit based on chromogenic urea complexation at 520-nm wavelength (Quantichrom™ Urea Assay Kit, BioAssay Systems, Hayward, Calif.). […] Aforsk, and Aphlor were averaged absorbance values (at 520 nm) for cultures treated with forskolin and forskolin+phloretin, respectively, and Atest were values from cultures treated with forskolin+test compound.

UT = conditions: cited from earlier work
RBCs from wild-type mice = experiment: Osmotic water permeability, RBCs from wild-type mice (stopped-flow); type: cell-based, mouse
Procedure: RBC urea and water permeabilities were assayed by stopped-flow light scattering using a Hi-Tech Sf-51 instrument (Wiltshire, UK). For measurement of urea permeability, dilutions of whole blood (human or mouse; see Example 1) in PBS (hematocrit: approximately 0.5%) were incubated with test compounds for 5 min and then subjected to a 250-mM inwardly directed gradient of urea. After an initial osmotic shrinking phase, the kinetics of increasing cell volume caused by urea influx were measured as the time-course of 90° scattered light intensity at 530 nm, with increasing cell volume resulting in reduced scattered light intensity. As a positive control, 0.7 mM phloretin was added to the RBC suspension prior to stopped-flow experiments. Measurements of water permeability were carried out similarly, with sucrose (cell-impermeant) used instead of urea to establish a 250-mM osmotic gradient. As a positive control, HgCl2 (0.3 mM) was added to the RBC suspension prior to stopped-flow measurements. Osmotic water permeability coefficients (Pf) were computed from light scattering data as described (van Hoek et al., J Biol. Chem. 267:18267-69 (1992)).
This example describes chemical knock-out of UT-B by UT-B inhibitors in RBCs and the effect on UT-B-facilitated water transport. […] Osmotic water permeability was measured by stopped-flow light scattering in RBCs from wild-type and AQP1-null mice as shown in FIG. 8A. […] AQP1-null RBCs had greater than 5-fold reduced Pf compared to wild-type RBCs.

## O=C(CCc1ccc(O)cc1)c1c(O)cc(O)cc1O [phloretin, reference compound]
Rat UT-A1
  effect on UT-A1-facilitated urea transport: inhibited
UT
  concentration exhibiting activity as UT inhibitor: > 0.5 mM
RBCs from wild-type mice; 0.7 mM, wild-type mouse RBCs
  reduction in Pf: small but significant reduction
RBCs from wild-type mice; 10° C., 250-mM sucrose gradient
  effect on water transport in RBCs from wild-type mice: little effect
